From US6916843B1, “Anti-inflammatory actions of cytochrome P450 expoxygenase-derived eicosanoids” (The United States of America as represented by the …, priority 1999, dated 2005)
Entries after “also recorded” stand apart in the source; their conditions may differ. Ends that are not written are not given here.

Legend:
[1] = system: bovine aortic endothelial cells (BAECs); assay: Hypoxia-reoxygenation-induced cell injury in BAECs (cell number, LDH release, trypan blue); assay type: cell-based; conditions: for hypoxia-reoxygenation-induced cell injury, epoxide hydrolase inhibitors: DCU 10 μmol/L and elaidamide 10 μmol/L added together prior to hypoxia
Protocol: Effects of P450-derived arachidonic acid metabolites on hypoxia-reoxygenalion-induced injury in BAECs. BAECs, either untransfected, or 48 hours after transfection with pcDNA3.1/GFP or pcDNA3.1/CYP2J2, or 10 min after treatment with eicosanoids, epoxide hydrolase inhibitors or vehicle, were exposed to hypoxia (95% nitrogen plus 5% carbon dioxide) for 24 hours, followed by reoxygenation (95% air plus 5% carbon dioxide) for 4 hours using an environmental chamber within a 37° C. incubator. Cells maintained under continuous (28 hours) normoxic conditions served as controls.
EETs were prepared by total chemical synthesis as previously described (Corey el al., 102 J. Am. Chem. Soc. 1433-1435 (1980), Falck et al., 23 Tetrahedron Lett. 1755-1756 (1982)). DHETs were prepared by chemical hydration of EETs as described by Capdevila et al., 187 Methods Enzymol. 386-394 (1990). Synthetic EETs and DHETs were purified by reverse-phase HPLC prior to use. BAECs, grown to ˜85% confluency, were treated with either synthetic [11,12]-EET, [11,12]-DHET, or [14,15]-EET in ethanol vehicle (1 μmol/L each, final concentration) for 10 min prior to exposure to hypoxia-reoxygenation. […] Cells treated with vehicle alone served as controls.
After hypoxia-reoxygenation, the cell number was determined using a hemocytometer and the degree of cell injury was assessed by measuring lactate dehydrogenase release into the culture medium using the CytoTox 96 Non-Radioactive Cytotoxicity Assay Kit (Promega, Madison, Wis.) and by counting the number of trypan blue dye stained cells. Data are expressed as a percentage of values obtained from control cells maintained under normoxic conditions.

CYP2J2 = biological target: T1, CYP2J2 (Homo sapiens, UniProt P51589); assay: Arachidonic acid epoxygenase metabolite formation in CYP2J2-transfected bovine aortic endothelial cells (HPLC)
T1 construct: The CYP2J2 cDNA (1.9 kb) or GFP cDNA (0.75 kb) were subcloned into the plasmid pcDNA3.1; expressed in transfected cells; host or cells: bovine aortic endothelial cells (BAECs), transient transfection with pcDNA3.1/CYP2J2
T1 sequence (P51589 1-502): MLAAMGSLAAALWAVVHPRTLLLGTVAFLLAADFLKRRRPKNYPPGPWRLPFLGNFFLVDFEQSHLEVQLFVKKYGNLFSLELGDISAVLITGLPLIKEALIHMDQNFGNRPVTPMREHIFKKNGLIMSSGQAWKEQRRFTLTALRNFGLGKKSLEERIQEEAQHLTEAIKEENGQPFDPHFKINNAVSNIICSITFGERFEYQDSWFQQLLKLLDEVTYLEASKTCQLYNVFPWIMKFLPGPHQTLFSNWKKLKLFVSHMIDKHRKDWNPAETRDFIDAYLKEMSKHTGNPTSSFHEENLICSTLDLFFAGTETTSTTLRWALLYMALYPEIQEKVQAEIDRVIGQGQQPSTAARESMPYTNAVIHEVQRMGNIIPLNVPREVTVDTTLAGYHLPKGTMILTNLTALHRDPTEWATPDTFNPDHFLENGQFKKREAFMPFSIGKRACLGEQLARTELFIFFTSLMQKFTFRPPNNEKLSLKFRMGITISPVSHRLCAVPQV
Protocol: To study the formation of EETs by CYP2J2 in endothelial cells, we measured EET synthesis from bovine endothelial cells transfected with CYP2J2 cDNA. Early passage bovine aortic endothelial cells were grown to 60-70% confluence and transfected with either pcDNA3.1 or pcDNA3.1/CYP2J2 using Fugene™ 6 reagent (Boehringer Mannheim Corp.) according to the manufacturer's instructions. Using this method, the transfection efficiency was 10-20%. Forty-eight hours post-transfection, cells were washed twice with phosphate-buffered saline and incubated with freshly purified [^3H]arachidonic acid (185 Ci/mmol, 4-5 μCi/175 mm^2 flask) and unlabeled arachidonic acid (10 μM) was added before addition of arachidonic acid. At various time points, the media and cells were removed and extracted with diethyl ether. The combined organic phases were dried under a nitrogen stream, resolved by reverse-phase high performance liquid chromatography (HPLC) and quantified by liquid scintillation as described by Wu et al., 271 J. Biol. Chem. 3460 (1996). […]
These control GFP-transfected cells metabolized radiolabeled arachidonic acid to epoxygenase metabolites (EETs and DHETs) at a rate of ˜8 pmol/min/10^7 cells (FIG. 6). Endothelial cell arachidonic acid metabolism was determined as follows: Forty-eight hours after transfection with either pcDNA3.1/GFP or pcDNA3.1/CYP2J2, BAECs were incubated with freshly purified [5, 6, 8, 9, 11, 12, 14, 15-^3H]arachidonic acid (185 Ci/mmol, 4-5 μCi/175-mm^2 flask) in serurm-free culture medium at 37° C. for 30-120 min. […] The BAECs and culture medium were then collected and the reaction products extracted into ethyl ether, dried under a nitrogen stream, analyzed by reverse-phase HPLC, and quantified by on-line liquid scintillation using a Radiomatic Flo-One β detector (Radiomatic Instruments, Tampa, Fla.) as described (Wu et al., 271 J. Biol. Chem. 12551 (1996), Node et al., 285 Science 1276-1279 (1999)). […]

VCAM-1 promoter = VCAM-1 promoter construct activity in transiently transfected bovine aortic endothelial cells; assay type: cell-based; conditions: 100 μM
Excerpt: To localize cis-acting elements in the VCAM-1 promoter that might mediate the inhibitory effects of [11,12]-EET, we transiently transfected bovine aortic endothelial cells with a -755 bp VCAM-1 promoter construct (DeCaterina et al., 96 J. Clin. Invest. 60 (1995)). Stimulation with TNF-α induced a 13-fold increase in relative VCAM-1 promoter activity that was abolished by cotreatment with [11,12]-EET. […] To confirm that the tandem κB sites in the VCAM-1 promoter are repressed by [11,12]-EET we subcloned them into a heterologous promoter construct containing the SV40 enhancer linked to the luciferase reporter gene (pκB.Luc). Stimulation of transfected endothelial cells with TNF-α induced a 6-fold increase in pκB.Luc promoter activity that was abolished by co-treatment with [11,12]-EET, but not [14,15]-EET (FIG. 2C). […] Compared to transfection with the empty pcDNA3.1 vector, overexpression of CYP2J2 decreased TNF-induced VCAM-1 and pκB.Luc promoter activity by 70-80% which were reversed in the presence of SK[…] (FIG. 2C). Neither transfection with CYP2J2 cDNA alone nor treatment with SK[…] alone affected basal promoter activity.

NF-κB = NF-κB heterologous promoter (pκB.Luc) luciferase reporter in bovine endothelial cells; assay type: cell-based; conditions: 100 μM
Protocol: (§1) FIG. 2 is a set of bar graphs of cell-surface enzyme immunoassays. […] The difference between treatment with TNF-α alone and in the presence of [11,12]-EET were statistically significant (*p<0.05, **p<0.01), OD, optical density. […] After stimulation with TNF-α (10 ng/ml) in the presence or absence of EET, promoter activity was determined relative to basal activity. *p<0.01 vs. TNF-α alone.
To localize cis-acting elements in the VCAM-1 promoter that might mediate the inhibitory effects of [11,12]-EET, we transiently transfected bovine aortic endothelial cells with a −755 bp VCAM-1 promoter construct (DeCaterina et al., 96 J. Clin. Invest. 60 (1995)). Stimulation with TNF-α induced a 13-fold increase in relative VCAM-1 promoter activity that was abolished by cotreatment with [11,12]-EET. […] To confirm that the tandem κB sites in the VCAM-1 promoter are repressed by [11,12]-EET we subcloned them into a heterologous promoter construct containing the SV40 enhancer linked to the luciferase reporter gene (pκB.Luc). Stimulation of transfected endothelial cells with TNF-α induced a 6-fold increase in pκB.Luc promoter activity that was abolished by co-treatment with [11,12]-EET, but not [14,15]-EET (FIG. 2C). […] Compared to transfection with the empty pcDNA3.1 vector, overexpression of CYP2J2 decreased TNF-induced VCAM-1 and pκB.Luc promoter activity by 70-80% which were reversed in the presence of SKF525A (FIG. 2C). Neither transfection with CYP2J2 cDNA alone nor treatment with SKF525A alone affected basal promoter activity.

IκB kinase (IKK) = assay: IKK activity assay with GST-IκB-α substrate, TNF-α-stimulated endothelial cells; assay type: biochemical, human; conditions: 100 nM, TNF-α 10 ng/ml, 15 min
Protocol: A set of gel shift assays was performed. […] In some assays, [11,12]-EET (100 nM) was also added directly to the IKK assay (in vitro). As a control for nonspecific phosphorylation, the assay was performed without the addition of immunoprecipitated IKK (no enzyme) or in the presence of a IκB-α mutant (ΔSer 32, Ser 36→Thr) as substrate. The assay was performed three times with similar results.
Specificity of IKB was determined by the complete absence of phosphorylation when the mutated IκB-α substrate, GST-1κB-α (Δ32,36: S→T) which cannot be phosphorylated at serine residues 32 and 36, was substituted for wild-type GST-IκB-α.

VCAM-1 expression = assay: Cell-surface enzyme immunoassay of cytokine-induced VCAM-1 expression in endothelial cells; assay type: cell-based, human; conditions: KCa channel blocker 100 nM
Protocol: as §1
To determine the biological effects of EETs, we treated tumor necrosis factor alpha (TNF-α)-stimulated human endothelial cells with physiological relevant concentrations (1-100 nM) of [5,6]-EET, [8,9]-EET, [11,12]-EET, [14,15]-EET, [11,12]-DHET.

In the case of `O=C(NC1CCCCC1)NC1CCCCC1` [DCU, dicyclohexylurea, reference compound], the “hypoxia-reoxygenation-induced cell injury, epoxide hydrolase inhibitors” value [1] is reported as “significantly attenuates” and the “hypoxia-reoxygenation-induced cell injury, epoxide hydrolase inhibitors” value ([1]; listed as dicyclohexylurea) is reported as “limits”.
In the case of `CCCC(C(=O)OCCN(CC)CC)(c1ccccc1)c1ccccc1` [SKF525A, reference compound], the “inhibition of increased epoxygenase activity of CYP2J2-transfected BAECs” value (CYP2J2; 100 μmol/L) is reported as “inhibited”, the “inhibition of formation of epoxygenase metabolites by CYP2J2 transfected cells” value (CYP2J2; inhibitor 100 μM) is reported as greater than 80% and the “reversal of CYP2J2-mediated decrease of VCAM-1 promoter activity” value (VCAM-1 promoter) is reported as “reversed”. The “reversal of CYP2J2-mediated decrease of pκB.Luc promoter activity” value (NF-κB) was “reversed”.
In the case of `CCCCC/C=C\C/C=C\C/C=C\CC1OC1CCCC(=O)O` (stereo not drawn) [[5,6]-EET], the “inhibition of TNF-α-induced IKK activity” value (IκB kinase (IKK)) is reported as “to a lesser extent”.
In the case of `CCCCC/C=C\C/C=C\CC1OC1C/C=C\CCCC(=O)O` (stereo not drawn) [[8,9]-EET], the “inhibition of TNF-α-induced IKK activity” value (IκB kinase (IKK)) is reported as “to a lesser extent”.
For `CCCCC/C=C\CC(O)C(O)C/C=C\C/C=C\CCCC(=O)O` (stereo not drawn) [[11,12]-DHET], the “hypoxia-reoxygenation-induced cell injury, number of trypan blue stained cells” value ([1]; 1 μmol/L, added 10 min prior to hypoxia (24 h hypoxia, 4 h reoxygenation)) was “active in attenuating; also recorded: significantly attenuates”.
With `CCCCCCCC/C=C/CCCCCCCC(N)=O` [elaidamide, reference compound] the “hypoxia-reoxygenation-induced cell injury, epoxide hydrolase inhibitors” value [1] was “limits; also recorded: significantly attenuates”.
charybodotoxin [reference compound] was tested, and the “block of the inhibitory effect of [11,12]-EET on TNF-α-induced VCAM-1 expression” value (VCAM-1 expression) was “did not block”.
With “iberiotoxin (QFTDVDCSVSKECWSVCKDLFGVDRGKCMGKKCRCYQ; not fully specified (residue 1, bridges); cysteine pairing not given here; UniProt P24663 1-37, looked up) [reference compound]” the “block of the inhibitory effect of [11,12]-EET on TNF-α-induced VCAM-1 expression” value (VCAM-1 expression) was “did not block”.
